pIC50: −log10 of the molar value. Values after ≈ are worked out from the molar mass of the structure shown.
Experiments:
[1] = target: T1, recombinant form of Glutaminase 1 (GAC) (Homo sapiens, UniProt O94925); experiment: Recombinant Enzyme Assay - Time Dependence (60 minutes enzyme/compound preincubation); assay type: biochemical
Experimental: The enzyme/compound mix was sealed with sealing foil (USA Scientific) and allowed to incubate, with mild agitation, for 60 minutes at 20° C. Enzymatic reaction was started with the addition of 50 μL of substrate solution (50 mM Tris-HCl pH 8.0, 0.2 mM EDTA, 150 mM K2HPO4, 0.1 mg/ml BSA, 1 mM DTT, 20 mM L-glutamine, 2 mM NAD^+, and 10 ppm antifoam) and read in a Molecular Devices M5 plate reader at 20° C. The plate reader was configured to read absorbance (λ=340 nm) in kinetic mode for 15 minutes. Data was recorded as milli-absorbance units per minute and slopes were compared to a control compound and a DMSO-only control on the same plate. Compounds with slopes less than the DMSO control were considered inhibitors and plate variability was assessed using the control compound.

[2] = Solubility (18 hr vortex mixing at room temperature, filtration, HPLC); assay type: physicochemical; conditions: thermodynamic from solid
Experimental: Ca. 1 mg portions of test article were combined with 120 μL solvent in wells of a 96×2 mL polypropylene plate. […] The contents of all wells were then filtered through a 0.45 μm GHP filter plate to yield clear filtrates. 5 μL of each filtrate was diluted into 100 μL DMF and vortex mixed to yield HPLC samples. Duplicate quantitation standards for each test article were prepared by diluting weighed portions of solid test article in measured volumes of DMF. 2 μL of each HPLC sample and quantitation standard were analyzed by HPLC using the method outlined in Table 5. Dissolved test article concentrations were calculated by peak area ratio against the appropriate quantitation standards.

[3] = target: T1, recombinant form of Glutaminase 1 (GAC); experiment: Recombinant Enzyme Assay (GAC coupled to GDH, NADH absorbance, no preincubation); assay type: biochemical; conditions: no preincubation; read-out: GAC Delta N2 IC50 no preinc
In short: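 GAC (4 nM) in Tris-HCl pH 8.0 with 150 mM K2HPO4, EDTA, BSA, DTT, plus 4 units/ml GDH and 4 mM ADP, without preincubation. Absorbance at 340 nm was read kinetically for 15 min at 20° C. Slopes (mAU/min) were compared with DMSO-only and control-compound wells on the same plate.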

[4] = read-out: GAC Delta N2 IC50 60 min preinc
[5] = read-out: GAC Delta N2 IC50 60 min

| Structure (SMILES) | pIC50 [1, 5] | further results |
| --- | --- | --- |
| O=C(Cc1ccccc1)Nc1ccc(CCCCc2nnc(NC(=O)C(OC(=O)CCN3CCOCC3)c3cccc(Cl)c3)s2)nn1 (stereo not shown) [Compound 389] | – | pIC50 [1, 4]: 7.08 |
| O=C(Cc1ccccc1)Nc1nnc(CCCCc2nnc(NC(=O)Cc3cccc(OCCN4CCOCC4)c3)s2)s1 [Compound 390] | – | pIC50 [1, 4]: 7.38 |
| CN(Cc1cccc(CC(=O)Nc2nnc(CCCCc3nnc(NC(=O)Cc4ccccc4)s3)s2)c1)C(=O)OC(C)(C)C [Compound 391] | – | pIC50 [1, 4]: 8.15 |
| O=C(Cc1ccccc1)Nc1nnc(CCCCc2nnc(NC(=O)Cc3cccc(Cn4cccn4)c3)s2)s1 [Compound 392] | – | pIC50 [1, 4]: 7.85 |
| CNCc1cccc(CC(=O)Nc2nnc(CCCCc3nnc(NC(=O)Cc4ccccc4)s3)s2)c1 [Compound 393] | – | pIC50 [1, 4]: 7.00 |
| CN(C)Cc1cccc(CC(=O)Nc2nnc(CCCCc3nnc(NC(=O)Cc4ccccc4)s3)s2)c1 [Compound 394] | 7.06 | – |
| CCCC(=O)OCN(C(=O)Cc1ccccc1)c1nnc(CCCCc2ccc(NC(=O)Cc3ccccc3)nn2)s1 [Compound 402] | – | solubility at 18 h ([2]; 50 mM citrate buffer pH 2.3, 20 °C, aqueous buffer, 50 mM Cit pH 2.3, room temperature): < 0.004 mg/mL; solubility at 18 h ([2]; 50 mM citrate buffer pH 3.3, 20 °C, aqueous buffer, 50 mM Cit pH 3.3, room temperature): < 0.004 mg/mL; solubility at 18 h ([2]; 50 mM citrate buffer pH 4.4, 20 °C, aqueous buffer, 50 mM Cit pH 4.4, room temperature): < 0.004 mg/mL; solubility at 18 h ([2]; 50 mM citrate buffer pH 5.4, 20 °C, aqueous buffer, 50 mM Cit pH 5.4, room temperature): < 0.004 mg/mL; solubility at 18 h ([2]; 20 °C, aqueous buffer, PBS, room temperature): < 0.004 mg/mL; solubility at 18 h ([2]; 20 °C, aqueous with cosolvent or surfactant or cyclodextrin, 10% CrEL/50 mM cit, room temperature): 0.157 mg/mL (≈ 268 µM); solubility at 18 h ([2]; 20 °C, aqueous with cosolvent or surfactant or cyclodextrin, 10% PS80/50 mM cit, room temperature): 0.153 mg/mL (≈ 261 µM); solubility at 18 h ([2]; 20 °C, aqueous with cosolvent or surfactant or cyclodextrin, 20% HPBCD/50 mM cit, room temperature): 0.056 mg/mL (≈ 95.4 µM); solubility at 18 h ([2]; 20 °C, aqueous with cosolvent or surfactant or cyclodextrin, 20% SBECD/50 mM cit, room temperature): 0.019 mg/mL (≈ 32.4 µM); solubility at 18 h ([2]; 20 °C, oil or lipid, Capryol 90, room temperature): 13.7 mg/mL (≈ 23300 µM); solubility at 18 h ([2]; 20 °C, oil or lipid, Capryol PGMC, room temperature): 11.2 mg/mL (≈ 19100 µM); solubility at 18 h ([2]; 20 °C, oil or lipid, Labrasol, room temperature): 31 mg/mL (≈ 52900 µM); solubility at 18 h ([2]; 20 °C, oil or lipid, canola oil, room temperature): 0.529 mg/mL (≈ 902 µM); solubility at 18 h ([2]; 20 °C, organic solvent or mixture, EtOH, room temperature): 2.96 mg/mL (≈ 5040 µM); solubility at 18 h ([2]; 20 °C, organic solvent or mixture, PEG400, room temperature): 30.2 mg/mL (≈ 51400 µM); solubility at 18 h ([2]; 20 °C, organic solvent or mixture, PG, room temperature): 1.36 mg/mL (≈ 2330 µM); solubility at 18 h ([2]; 20 °C, pH 1, simulated gastric fluid, 0.1M HCl, room temperature): < 0.004 mg/mL; solubility at 18 h ([2]; 20 °C, pH 13, aqueous buffer, 0.1M NaOH, room temperature): < 0.004 mg/mL; solubility at 18 h ([2]; 20 °C, saline or isotonic, 0.9% NaCl, room temperature): < 0.004 mg/mL; solubility at 18 h ([2]; water, room temperature (ca. 20 C)): < 0.004 mg/mL |
| Nc1ccc(CCCCc2nnc(NC(=O)C(O)c3cccc(Cl)c3)s2)nn1 (stereo not shown) [Compound 411] | 6.66 | – |
| Cc1cccc(CNC(=O)Nc2nnc(CCCCc3nnc(NC(=O)Cc4ccccc4)s3)s2)c1 [Compound 417] | 7.25 | – |
| CC(C)(C)OC(=O)NCc1cccc(CC(=O)Nc2nnc(CCCCc3ccc(NC(=O)C(O)c4cccc(Cl)c4)nn3)s2)c1 (stereo not shown) [Compound 422] | 8.15 | – |
| NCc1cccc(CC(=O)Nc2nnc(CCCCc3nnc(NC(=O)Cc4ccccc4)s3)s2)c1 [Compound 437] | 7.15 | – |
| CC(C)NC(=O)Nc1nnc(CCCCc2nnc(NC(=O)Cc3ccccc3)s2)s1 [Compound 438] | 6.13 | – |
| O=C(CN1CCOCC1)NCc1ccc(CC(=O)Nc2nnc(CCCCc3ccc(NC(=O)Cc4ccccc4)nn3)s2)cc1 [Compound 442] | 8.15 | – |
| O=C(Nc1ccc(CCCCc2nnc(NC(=O)C(O)c3cccc(Cl)c3)s2)nn1)C(O)c1cccc(Cl)c1 (stereo not shown) [Compound 446] | 7.96 | – |
| CC(C(=O)Nc1ccc(CCCCc2nnc(NC(=O)C(O)c3cccc(Cl)c3)s2)nn1)c1ccccc1 (stereo not shown) [Compound 468] | 7.80 | – |
| O=C(Cc1ccccc1)Nc1ccc(CCCCc2nnc(NC(=O)Cc3cccc(OCc4ccccn4)c3)s2)nn1 [Compound 480] | < 4.70 | – |
| CC(C(=O)Nc1nnc(CCCCc2ccc(NC(=O)Cc3cccc(CNC(=O)OC(C)(C)C)c3)nn2)s1)c1ccccc1 (stereo not shown) [Compound 489] | 8.10 | – |
| CC(C)(C)OC(=O)NCc1cc(CC(=O)Nc2nnc(CCCCc3ccc(NC(=O)Cc4ccccc4)nn3)s2)ccc1F [Compound 492] | 8.22 | – |
| CC(C)(C)OC(=O)N1CCN(Cc2cc(CC(=O)Nc3nnc(CCCCc4ccc(NC(=O)Cc5ccccc5)nn4)s3)ccc2F)CC1 [Compound 493] | 7.72 | – |
| O=C(Cc1ccccc1)Nc1ccc(CCCCc2nnc(NC(=O)Cc3ccc(F)c(CN4CCNCC4)c3)s2)nn1 [Compound 494] | 7.72 | – |
| O=C(Cc1ccccc1)Nc1ccc(CCCCc2nnc(NC(=O)C(O)c3ccc(-c4ccccc4)cc3OCCO)s2)nn1 (stereo not shown) [Compound 504] | 8.15 | – |
| CC(C)(C)OC(=O)NCc1cccc(CC(=O)Nc2nnc(CCCCc3ccc(NC(=O)C(O)(CO)c4ccccc4)nn3)s2)c1 (stereo not shown) [Compound 507] | 7.89 | – |
| COC(C(=O)Nc1ccc(CCCCc2nnc(NC(=O)Cc3cccc(CNC(=O)OC(C)(C)C)c3)s2)nn1)c1ccccc1 (stereo not shown) [Compound 508] | 7.96 | – |

| Structure (SMILES) | pIC50 [1, 5] | further results |
| --- | --- | --- |
| COC(C(=O)Nc1nnc(CCCCc2ccc(NC(=O)Cc3cccc(CNC(=O)OC(C)(C)C)c3)nn2)s1)c1ccccc1 (stereo not shown) [Compound 509] | 8.00 | – |
| O=C(Cc1ccccc1)Nc1ccc(CCCCc2nnc(NC(=O)CC3=CN4CCCN=C4S3)s2)nn1 [Compound 511] | 6.24 | – |
| CC(=O)N1CCN(Cc2cc(CC(=O)Nc3nnc(CCCCc4ccc(NC(=O)Cc5ccccc5)nn4)s3)ccc2F)CC1 [Compound 528] | 8.15 | – |
| CC(C)(C)OC(=O)NCc1cccc(CC(=O)Nc2nnc(CCCCc3ccc(NC(=O)C4(C)COC(C)(C)OC4)nn3)s2)c1 [Compound 529] | 7.49 | – |
| Cc1ccccc1CC(=O)Nc1nnc(CCCCc2ccc(NC(=O)Cc3ccccc3Cl)nn2)s1 [Compound 535] | 8.15 | – |
| Cc1ccccc1CC(=O)Nc1nnc(CCCCc2ccc(NC(=O)Cc3ccccc3F)nn2)s1 [Compound 536] | 8.22 | – |
| CCCC(=O)OCN(C(=O)Cc1cccc(CNC(=O)OC(C)(C)C)c1)c1nnc(CCCCc2ccc(NC(=O)Cc3ccccc3)nn2)s1 [Compound 552] | < 4.70 | – |
| CC(C)Cc1ccc(C(C)C(=O)Nc2nnc(CCCCc3ccc(NC(=O)Cc4ccccc4)nn3)s2)cc1 (stereo not shown) [Compound 557] | 7.60 | – |
| O=C(Cc1ccccc1F)Nc1ccc(CCCCc2nnc(NC(=O)Cc3ccccc3Cl)s2)nn1 [Compound 566] | 8.22 | – |
| CCCC(=O)OCN(C(=O)C(CO)c1cccc(CNC(=O)OC(C)(C)C)c1)c1nnc(CCCCc2ccc(NC(=O)Cc3ccccc3)nn2)s1 (stereo not shown) [Compound 567] | 6.37 | – |
| CC(C(=O)Nc1nnc(CCCCc2ccc(NC(=O)Cc3ccccc3)nn2)s1)c1ccc(F)c(CNC(=O)OC(C)(C)C)c1 (stereo not shown) [Compound 568] | 8.05 | – |
| CN(Cc1cc(CC(=O)Nc2nnc(CCCCc3ccc(NC(=O)Cc4ccccc4)nn3)s2)ccc1F)C(=O)OC(C)(C)C [Compound 569] | 8.22 | – |
| CCCC(=O)OCN(C(=O)Cc1cccc(CC(=O)N2CCC(F)(F)CC2)c1)c1nnc(CCCCc2ccc(NC(=O)Cc3ccccc3)nn2)s1 [Compound 570] | 6.37 | – |
| CCOC(=O)NCc1cc(C(C)C(=O)Nc2nnc(CCCCc3ccc(NC(=O)Cc4ccccc4)nn3)s2)ccc1F (stereo not shown) [Compound 574] | 8.22 | – |
| CC(C(=O)Nc1nnc(CCCCc2ccc(NC(=O)Cc3cccc(CNC(=O)OCCF)c3)nn2)s1)c1ccccc1 (stereo not shown) [Compound 591] | 8.40 | – |
| CC(C(=O)Nc1ccc(CCCCc2nnc(NC(=O)Cc3ccccc3)s2)nn1)c1ccc(F)c(CN(C)C(=O)OC(C)(C)C)c1 (stereo not shown) [Compound 599] | 8.00 | – |
| CC(NC(=O)OC(C)(C)C)c1cccc(CC(=O)Nc2ccc(CCCCc3nnc(NC(=O)C(C)c4ccccc4)s3)nn2)c1 (stereo not shown) [Compound 603] | 8.05 | – |
| COC(C(=O)Nc1nnc(CCCCc2ccc(NC(=O)Cc3cccc(CNC(=O)CC(O)C(F)(F)F)c3)nn2)s1)c1ccccc1 (stereo not shown) [Compound 604] | 7.82 | – |
| COC(C(=O)Nc1nnc(CCCCc2ccc(NC(=O)Cc3cccc(CNC(=O)CC(C)(O)C(F)(F)F)c3)nn2)s1)c1ccccc1 (stereo not shown) [Compound 605] | 7.89 | – |
| CC(C(=O)Nc1nnc(CCCCc2ccc(NC(=O)Cc3cccc(CNC(=O)CC(O)C(F)(F)F)c3)nn2)s1)c1ccccc1 (stereo not shown) [Compound 606] | 8.15 | – |
| O=C(Cc1ccccc1)Nc1nnc(C[C@@H]2C[C@H]2Cc2nnc(NC(=O)Cc3ccccc3)s2)s1 [Compound 1035] | – | pIC50 [3]: < 4.70 |
| O=C(Cc1ccccc1)Nc1ccc(CCCCc2ccc(NC(=O)Cc3ccccc3)nn2)nn1 [Compound 1038] | – | pIC50 [3]: 7.10 |
